Legend:
[1] = inhibitors of NFkB activation in CF airway cells, SAR follow-up, KKLEB cells, panel, IL8 HTRF, NFkB-GFP (AID 651592); conditions: PAF/TNFa-induced NFkB-GFP / IL8 HTRF, CF-PAF assay;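 note: immortalized cystic fibrosis airway epithelial KKLEB cells with an NF-kB GFP reporter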
[2] = tested on: IL8; experiment: as above; conditions: PAF/TNFa-induced NFkB-GFP / IL8 HTRF, mean of runs, mean IC50 across panel replicates
[3] = target: Interleukin-8 (Homo sapiens) (UniProt P10145); experiment: as above; conditions: PAF/TNFa-induced NFkB-GFP / IL8 HTRF
[4] = mean of runs, mean IC50 across panel replicates

Sequence of Interleukin-8 (Homo sapiens) (P10145 whole entry, looked up): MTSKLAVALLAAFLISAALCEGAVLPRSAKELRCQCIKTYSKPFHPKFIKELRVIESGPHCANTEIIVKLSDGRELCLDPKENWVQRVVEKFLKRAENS

Compound	IC50 [1, 4] [µM]	IC50 ([1]; run 1) [µM]	IC50 ([1]; run 2) [µM]	IC50 ([1]; run 3) [µM]	IC50 ([1]; run 4) [µM]	IC50 ([1]; run 5) [µM]	IC50 ([1]; run 6) [µM]	IC50 ([2]; PAF-induced) [µM]	IC50 ([2]; TNFa-induced) [µM]	IC50 ([3]; IL8, PAF-induced, run 1) [µM]	IC50 ([3]; IL8, PAF-induced, run 2) [µM]	IC50 ([3]; IL8, PAF-induced, run 3) [µM]	IC50 ([3]; IL8, PAF-induced, run 4) [µM]	IC50 ([3]; IL8, PAF-induced, run 5) [µM]	IC50 ([3]; IL8, PAF-induced, run 6) [µM]	IC50 ([3]; IL8, TNFa-induced, run 1) [µM]	IC50 ([3]; IL8, TNFa-induced, run 2) [µM]	IC50 ([3]; IL8, TNFa-induced, run 3) [µM]	IC50 ([3]; IL8, TNFa-induced, run 4) [µM]	IC50 ([3]; IL8, TNFa-induced, run 5) [µM]	also measured
O=C(Nc1ccc(N2CCN(C(=O)c3ccccc3)CC2)cc1)c1ccccc1	50.5	30.5	31.9	42.5	> 66	> 66	> 66	> 66	> 66	> 66	> 66	> 66	> 66	> 66	> 66	> 66	> 66	> 66	> 66	> 66	IC50 ([3]; IL8, TNFa-induced, run 6): > 66 µM
O=C(Nc1ccc(N2CCN(C(=O)c3ccccc3Cl)CC2)cc1)c1cc(Br)cc(Br)c1	> 66	> 66	> 66	> 66	> 66	> 66	> 66	> 66	> 66	> 66	> 66	> 66	> 66	> 66	> 66	> 66	> 66	> 66	> 66	> 66	IC50 ([3]; IL8, TNFa-induced, run 6): > 66 µM
O=C(Nc1ccc(N2CCN(C(=O)c3ccccc3)CC2)cc1)c1ccccn1	> 66	> 66	> 66	> 66	> 66	> 66	> 66	> 66	> 66	> 66	> 66	> 66	> 66	> 66	> 66	> 66	> 66	> 66	> 66	> 66	IC50 ([3]; IL8, TNFa-induced, run 6): > 66 µM
O=C(Nc1ccc(N2CCN(C(=O)c3ccccc3)CC2)cc1)c1cc(Br)cc(Br)c1	> 66	> 66	> 66	> 66	> 66	> 66	> 66	> 66	> 66	> 66	> 66	> 66	> 66	> 66	> 66	> 66	> 66	> 66	> 66	> 66	IC50 ([3]; IL8, TNFa-induced, run 6): > 66 µM
O=C(Nc1ccc(N2CCN(C(=O)c3ccccc3)CC2)cc1)c1cccnc1	42.9	17	20.7	21.9	> 66	> 66	> 66	40.3	> 66	> 66	> 66	7.51	> 66	> 66	36.4	> 66	> 66	> 66	> 66	> 66	IC50 ([3]; IL8, TNFa-induced, run 6): > 66 µM

Now those with a lower IC50 [1, 4], led by results:

IC50 [1, 4] [µM]	IC50 ([1]; run 1) [µM]	IC50 ([1]; run 2) [µM]	IC50 ([1]; run 3) [µM]	IC50 ([1]; run 4) [µM]	IC50 ([1]; run 5) [µM]	IC50 ([1]; run 6) [µM]	IC50 ([2]; PAF-induced) [µM]	IC50 ([2]; TNFa-induced) [µM]	IC50 ([3]; IL8, PAF-induced, run 1) [µM]	IC50 ([3]; IL8, PAF-induced, run 2) [µM]	IC50 ([3]; IL8, PAF-induced, run 3) [µM]	IC50 ([3]; IL8, PAF-induced, run 4) [µM]	IC50 ([3]; IL8, PAF-induced, run 5) [µM]	IC50 ([3]; IL8, PAF-induced, run 6) [µM]	IC50 ([3]; IL8, TNFa-induced, run 1) [µM]	IC50 ([3]; IL8, TNFa-induced, run 2) [µM]	IC50 ([3]; IL8, TNFa-induced, run 3) [µM]	IC50 ([3]; IL8, TNFa-induced, run 4) [µM]	IC50 ([3]; IL8, TNFa-induced, run 5) [µM]	Compound	also measured
39.8	> 66	16.8	24.3	> 66	> 66	> 66	55	> 66	> 66	> 66	> 66	> 66	> 66	> 66	> 66	> 66	> 66	> 66	> 66	O=C(Nc1ccc(N2CCN(C(=O)c3ccccc3Cl)CC2)cc1)c1cccc(Br)c1	IC50 ([3]; IL8, TNFa-induced, run 6): > 66 µM
31.8	15.6	16.3	17.9	> 66	> 66	8.71	55.8	> 66	> 66	> 66	55.8	> 66	> 66	> 66	> 66	> 66	> 66	> 66	> 66	O=C(Nc1ccc(N2CCN(C(=O)c3ccccc3F)CC2)cc1)c1ccncc1	IC50 ([3]; IL8, TNFa-induced, run 6): > 66 µM
25.5	12.8	20.1	22.3	> 66	13	19	4	> 66	2.61	3.3	3.37	4.49	4.57	5.68	> 66	> 66	> 66	> 66	> 66	CCOc1ccc(NCc2cc3c(C(C)(C)C)nn(-c4ccccc4)c3[nH]c2=O)cc1	IC50 ([3]; IL8, TNFa-induced, run 6): > 66 µM
25.2	18.7	44.7	48	10.4	12.9	16.3	1.62	> 66	1.25	1.71	1.85	1.33	1.66	1.89	> 66	> 66	> 66	> 66	> 66	CCOc1ccc(NCc2cc3c(-c4ccc(OC)c(OC)c4)nn(-c4ccccc4)c3[nH]c2=O)cc1	IC50 ([3]; IL8, TNFa-induced, run 6): > 66 µM
9.11	14.2	15.7	18.1	1.81	2.36	2.48	0.522	57.5	0.434	0.974	1.05	0.181	0.244	0.248	> 66	> 66	> 66	> 66	> 66	CCOc1ccc(NCc2cc3c(-c4ccc(F)cc4)nn(-c4ccccc4)c3[nH]c2=O)cc1	IC50 ([3]; IL8, TNFa-induced, run 6): 14.8 µM
4.12	3.91	4.12	4.31	< 10	< 10	< 10	29.9	45.5	> 66	> 66	16.7	< 10	< 10	10.6	> 66	> 66	> 66	> 66	> 66	O=C(Nc1ccc(N2CCN(C(=O)c3ccccc3Cl)CC2)cc1)c1ccccc1	IC50 ([3]; IL8, TNFa-induced, run 6): 8.88 µM
3.75	2.7	3.16	3.43	2.93	4.5	5.77	9.06	60.9	4.34	7.55	9.86	0.898	7.37	24.3	> 66	> 66	35.6	> 66	> 66	O=C(Nc1ccc(N2CCN(C(=O)c3ccccc3)CC2)cc1)c1cncc(Br)c1	IC50 ([3]; IL8, TNFa-induced, run 6): > 66 µM

From PubChem BioAssay AID651592 (Sanford-Burnham Center for Chemical Genomics, 2012)
